From ChEMBL document CHEMBL1201862, “PubChem BioAssay data set” (2004)
The source made the active and inactive calls.

Legend:
[1] = target: T1, Tyrosine-protein phosphatase non-receptor type 22 (Homo sapiens, UniProt Q9Y2R2); assay type: functional
T1 sequence (Q9Y2R2 whole entry): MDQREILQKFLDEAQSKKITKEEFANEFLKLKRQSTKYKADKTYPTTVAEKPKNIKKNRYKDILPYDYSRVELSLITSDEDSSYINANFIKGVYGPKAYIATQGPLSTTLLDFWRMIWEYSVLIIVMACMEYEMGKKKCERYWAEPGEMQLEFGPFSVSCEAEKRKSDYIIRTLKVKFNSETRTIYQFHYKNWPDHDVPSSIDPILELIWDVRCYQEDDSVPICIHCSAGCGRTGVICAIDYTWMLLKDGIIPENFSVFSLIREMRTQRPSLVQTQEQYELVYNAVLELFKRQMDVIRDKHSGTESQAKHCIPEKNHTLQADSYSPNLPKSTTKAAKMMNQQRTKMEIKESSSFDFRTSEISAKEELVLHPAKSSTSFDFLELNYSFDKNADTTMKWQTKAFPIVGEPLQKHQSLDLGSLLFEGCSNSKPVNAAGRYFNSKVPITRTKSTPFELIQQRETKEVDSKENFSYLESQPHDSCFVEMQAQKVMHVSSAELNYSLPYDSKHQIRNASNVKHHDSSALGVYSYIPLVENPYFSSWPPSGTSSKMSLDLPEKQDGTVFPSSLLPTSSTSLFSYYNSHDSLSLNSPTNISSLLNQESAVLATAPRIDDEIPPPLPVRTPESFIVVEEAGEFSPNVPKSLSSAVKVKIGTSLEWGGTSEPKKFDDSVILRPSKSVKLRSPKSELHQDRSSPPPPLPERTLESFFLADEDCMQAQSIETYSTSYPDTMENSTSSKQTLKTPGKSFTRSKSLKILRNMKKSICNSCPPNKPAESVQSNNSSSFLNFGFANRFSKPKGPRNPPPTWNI

[2] = target: T2, Tyrosine-protein phosphatase non-receptor type 7 (Homo sapiens, UniProt P35236); assay type: functional
T2 sequence (P35236 whole entry): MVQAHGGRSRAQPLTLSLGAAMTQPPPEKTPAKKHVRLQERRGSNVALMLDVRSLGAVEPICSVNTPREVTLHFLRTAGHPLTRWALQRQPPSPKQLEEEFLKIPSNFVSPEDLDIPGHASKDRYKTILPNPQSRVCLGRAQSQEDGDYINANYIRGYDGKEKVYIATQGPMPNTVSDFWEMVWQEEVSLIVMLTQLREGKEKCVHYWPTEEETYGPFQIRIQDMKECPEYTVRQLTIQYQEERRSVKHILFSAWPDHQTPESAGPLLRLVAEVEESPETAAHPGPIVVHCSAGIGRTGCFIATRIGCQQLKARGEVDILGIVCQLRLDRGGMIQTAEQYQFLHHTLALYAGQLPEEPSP

[3] = target: T1, Tyrosine-protein phosphatase non-receptor type 22; assay type: functional; remark: listed apart in the source
[4] = microbe, parasite or virus in culture; assay type: functional; conditions: Mycobacterium tuberculosis
[5] = target: T3, Type-1 angiotensin II receptor (Homo sapiens, UniProt P30556); test: AT1 receptor antagonists, dose response, selectivity assay for APJ receptor antagonist project, cell-based, uHTS hits (AID 463214); assay type: functional;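 also: antagonist potency against angiotensin II stimulated AT1 response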
T3 sequence (P30556 whole entry): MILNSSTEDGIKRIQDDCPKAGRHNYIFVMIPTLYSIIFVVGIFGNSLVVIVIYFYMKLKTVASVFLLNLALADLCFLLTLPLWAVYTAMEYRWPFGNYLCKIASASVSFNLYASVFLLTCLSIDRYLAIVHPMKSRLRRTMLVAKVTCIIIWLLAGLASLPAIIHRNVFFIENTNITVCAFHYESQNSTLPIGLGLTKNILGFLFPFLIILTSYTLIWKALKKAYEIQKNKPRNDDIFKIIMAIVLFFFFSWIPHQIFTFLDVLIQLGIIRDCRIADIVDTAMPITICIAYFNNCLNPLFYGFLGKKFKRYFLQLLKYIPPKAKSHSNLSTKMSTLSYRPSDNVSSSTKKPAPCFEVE

Beta-galactosidase [6] = target: T4, Beta-galactosidase (Escherichia coli, UniProt Q8VNN2); assay type: functional
[7] = Vero E6 cell cytotoxicity, dose response, cytotoxicity control for non-replicating M. tuberculosis project, secondary assay (AID 492998); assay type: functional, VeroE6; conditions: Vero C1008
[8] = HepG2 cell cytotoxicity, dose response, cytotoxicity control for non-replicating M. tuberculosis project (AID 489018); assay type: functional; conditions: Mycobacterium tuberculosis
INS1 = test: beta cell apoptosis inhibitors, cytokine rescue, dose response, luminescence, retest (AID 449756); assay type: functional, cell-based; conditions: Rattus norvegicus;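 also: cell death triggered by IL-1 beta plus TNF-alpha plus IFN-gamma mixture; protective hits raise ATP signal compared with cytokine alone wells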
[9] = target: T5, Kappa-type opioid receptor (Homo sapiens, UniProt P41145); assay type: functional
[10] = target: T6, Delta-type opioid receptor (Homo sapiens, UniProt P41143); test: HTS Image-Based Screen for Agonists of the DOR Receptor. [Related pubchem assays (depositor defined):AID1777, AID1786, AID2133]; assay type: functional
Mu-type opioid receptor = Mu-type opioid receptor (Homo sapiens, UniProt P35372); test: HTS Image-Based Screen for Agonists of the MOR Receptor. [Related pubchem assays (depositor defined):AID1777, AID1785, AID1786, AID2133]; assay type: functional;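 also: imaging of beta-arrestin GFP recruitment into spots after receptor activation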
[11] = THP-1 cell cytotoxicity, dose response, cytotoxicity control for non-replicating M. tuberculosis project (AID 489025); assay type: functional
Beta-galactosidase [12] = target: T4, Beta-galactosidase; test: PubChem AID 485352; assay type: functional
[13] = target: T5, Kappa-type opioid receptor; assay type: functional; remark: listed apart in the source
cells = assay type: functional
[14] = target: T6, Delta-type opioid receptor; test: HTS Image-Based Screen for Antagonists of the DOR Receptor. [Related pubchem assays (depositor defined):AID1777, AID1785, AID1786, AID2133]; assay type: functional
[15] = target: T7, Heat shock factor protein 1 (Mus musculus, UniProt P38532); test: inhibition of MG132-induced HSE-luciferase signal, confirmation, cell-based, NIH3T3, luminescence, dose retest (AID 2382); assay type: functional;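 also: NIH3T3 fibroblasts with HSF1-driven luciferase reporter stressed by proteasome inhibitor MG132; luminescence from HSF1-driven luciferase expression after 8 hours of MG132 stress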
T7 sequence (P38532 whole entry): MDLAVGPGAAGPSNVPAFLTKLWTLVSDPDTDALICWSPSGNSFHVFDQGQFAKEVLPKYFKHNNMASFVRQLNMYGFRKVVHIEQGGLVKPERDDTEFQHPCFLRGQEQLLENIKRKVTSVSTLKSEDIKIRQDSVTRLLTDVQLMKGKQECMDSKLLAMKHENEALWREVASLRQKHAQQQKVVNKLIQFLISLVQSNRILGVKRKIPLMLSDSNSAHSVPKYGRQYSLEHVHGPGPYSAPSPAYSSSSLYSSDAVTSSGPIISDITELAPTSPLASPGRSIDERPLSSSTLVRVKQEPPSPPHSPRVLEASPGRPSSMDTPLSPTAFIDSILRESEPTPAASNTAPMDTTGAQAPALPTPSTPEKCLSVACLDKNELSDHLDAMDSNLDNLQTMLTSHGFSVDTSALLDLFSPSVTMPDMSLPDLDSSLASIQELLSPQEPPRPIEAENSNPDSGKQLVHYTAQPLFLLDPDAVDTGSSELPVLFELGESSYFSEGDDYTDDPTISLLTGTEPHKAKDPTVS

Hexokinase-1 = target: T8, Hexokinase-1 (Homo sapiens, UniProt P19367); test: hexokinase 1 activators, dose response, selectivity assay for HKDC1 activator project, biochemical (AID 504762); assay type: functional
T8 sequence (P19367 whole entry): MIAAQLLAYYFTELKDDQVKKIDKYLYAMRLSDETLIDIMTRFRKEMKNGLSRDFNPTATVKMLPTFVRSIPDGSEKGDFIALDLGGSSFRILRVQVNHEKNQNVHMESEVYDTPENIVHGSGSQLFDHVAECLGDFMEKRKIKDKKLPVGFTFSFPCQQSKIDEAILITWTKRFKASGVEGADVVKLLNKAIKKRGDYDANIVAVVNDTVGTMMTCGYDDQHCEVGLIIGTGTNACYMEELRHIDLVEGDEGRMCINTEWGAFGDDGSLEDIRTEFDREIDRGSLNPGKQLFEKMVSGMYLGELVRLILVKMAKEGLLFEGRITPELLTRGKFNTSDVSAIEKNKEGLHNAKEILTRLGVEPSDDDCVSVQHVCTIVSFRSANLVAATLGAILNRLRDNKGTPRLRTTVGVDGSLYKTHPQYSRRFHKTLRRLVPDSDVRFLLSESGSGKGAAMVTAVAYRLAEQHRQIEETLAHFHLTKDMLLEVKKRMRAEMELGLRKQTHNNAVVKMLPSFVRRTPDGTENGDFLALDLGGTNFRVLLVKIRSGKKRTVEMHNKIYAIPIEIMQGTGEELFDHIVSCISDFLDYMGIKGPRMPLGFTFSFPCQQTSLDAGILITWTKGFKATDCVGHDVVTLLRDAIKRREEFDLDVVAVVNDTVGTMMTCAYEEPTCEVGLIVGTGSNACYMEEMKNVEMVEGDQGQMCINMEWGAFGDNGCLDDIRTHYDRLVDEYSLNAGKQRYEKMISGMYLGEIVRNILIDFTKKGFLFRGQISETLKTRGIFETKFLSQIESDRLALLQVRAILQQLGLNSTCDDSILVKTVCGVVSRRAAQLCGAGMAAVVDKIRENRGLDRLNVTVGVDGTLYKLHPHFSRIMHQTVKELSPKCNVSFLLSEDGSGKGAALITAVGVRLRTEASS

Hexokinase HKDC1 = target: T9, Hexokinase HKDC1 (Homo sapiens, UniProt Q2TB90); test: HKDC1 hexokinase activators, dose response, biochemical, W721R variant (AID 504730); assay type: functional
T9 sequence (Q2TB90 whole entry): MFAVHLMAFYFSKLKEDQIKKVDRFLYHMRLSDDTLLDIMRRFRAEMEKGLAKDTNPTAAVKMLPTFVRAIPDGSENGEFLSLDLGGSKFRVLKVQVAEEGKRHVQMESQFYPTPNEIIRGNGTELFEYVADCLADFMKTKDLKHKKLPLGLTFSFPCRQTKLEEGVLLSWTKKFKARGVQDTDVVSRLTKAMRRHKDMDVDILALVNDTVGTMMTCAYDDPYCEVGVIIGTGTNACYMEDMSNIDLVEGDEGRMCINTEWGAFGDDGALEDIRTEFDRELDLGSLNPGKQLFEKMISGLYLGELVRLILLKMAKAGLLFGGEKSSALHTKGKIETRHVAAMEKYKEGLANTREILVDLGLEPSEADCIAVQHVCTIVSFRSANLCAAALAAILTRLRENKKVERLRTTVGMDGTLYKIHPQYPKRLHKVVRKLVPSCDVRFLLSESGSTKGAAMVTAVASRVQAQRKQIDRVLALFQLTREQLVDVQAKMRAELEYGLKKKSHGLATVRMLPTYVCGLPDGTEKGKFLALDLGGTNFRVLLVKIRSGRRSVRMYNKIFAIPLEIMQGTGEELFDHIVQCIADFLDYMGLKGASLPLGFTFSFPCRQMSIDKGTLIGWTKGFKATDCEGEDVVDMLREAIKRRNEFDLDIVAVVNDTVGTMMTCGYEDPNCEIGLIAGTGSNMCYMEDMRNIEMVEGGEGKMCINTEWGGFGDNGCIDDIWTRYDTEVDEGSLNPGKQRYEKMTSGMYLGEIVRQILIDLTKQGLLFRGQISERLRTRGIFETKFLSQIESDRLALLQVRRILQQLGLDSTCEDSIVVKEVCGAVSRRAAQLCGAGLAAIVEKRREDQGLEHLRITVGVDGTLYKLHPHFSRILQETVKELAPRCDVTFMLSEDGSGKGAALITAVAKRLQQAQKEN

[16] = system: Streptococcus sp. 'group A'; test: growth inhibition of control SK(-) GAS strain, dose response, counter-screen for streptokinase expression inhibitor project, luminescence, kanamycin, BacTiterGlo, confirmation (AID 1900); assay type: functional, organism-based
[17] = A Cell Based Secondary Assay To Explore Cytotoxicity of Compounds that Sensitize Mycobacterium Tuberculosis to Beta-Lactam Antibiotics.; assay type: functional
[18] = inhibitors of SNCA 5'UTR-driven reporter translation, confirmation, H4 neuroglioma cells, luminescence (AID 1988); assay type: functional, cell-based
[19] = Luminescence Cell-Based Dose Response HTS to Identify Inhibitors of 5'UTR Stem-Loop Driven Prion Protein mRNA Translation in H4 Neuroglioblastoma Cells. [Related pubchem assays: 1827 (Project Summary), 1813 (Primary HTS)]; assay type: functional
Streptococcus = test: Group A Streptococcus viability loss, dose response, counter-screen for streptokinase expression inhibitor project, luminescence, BacTiterGlo (AID 1915); assay type: functional, organism-based;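 also: potency for reduction of bacterial viability or growth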
[20] = inhibitors of firefly luciferase expression or activity, dose response, H4 neuroglioma cells, luminescence (AID 1990); assay type: functional, cell-based

T4 sequence (Q8VNN2 whole entry): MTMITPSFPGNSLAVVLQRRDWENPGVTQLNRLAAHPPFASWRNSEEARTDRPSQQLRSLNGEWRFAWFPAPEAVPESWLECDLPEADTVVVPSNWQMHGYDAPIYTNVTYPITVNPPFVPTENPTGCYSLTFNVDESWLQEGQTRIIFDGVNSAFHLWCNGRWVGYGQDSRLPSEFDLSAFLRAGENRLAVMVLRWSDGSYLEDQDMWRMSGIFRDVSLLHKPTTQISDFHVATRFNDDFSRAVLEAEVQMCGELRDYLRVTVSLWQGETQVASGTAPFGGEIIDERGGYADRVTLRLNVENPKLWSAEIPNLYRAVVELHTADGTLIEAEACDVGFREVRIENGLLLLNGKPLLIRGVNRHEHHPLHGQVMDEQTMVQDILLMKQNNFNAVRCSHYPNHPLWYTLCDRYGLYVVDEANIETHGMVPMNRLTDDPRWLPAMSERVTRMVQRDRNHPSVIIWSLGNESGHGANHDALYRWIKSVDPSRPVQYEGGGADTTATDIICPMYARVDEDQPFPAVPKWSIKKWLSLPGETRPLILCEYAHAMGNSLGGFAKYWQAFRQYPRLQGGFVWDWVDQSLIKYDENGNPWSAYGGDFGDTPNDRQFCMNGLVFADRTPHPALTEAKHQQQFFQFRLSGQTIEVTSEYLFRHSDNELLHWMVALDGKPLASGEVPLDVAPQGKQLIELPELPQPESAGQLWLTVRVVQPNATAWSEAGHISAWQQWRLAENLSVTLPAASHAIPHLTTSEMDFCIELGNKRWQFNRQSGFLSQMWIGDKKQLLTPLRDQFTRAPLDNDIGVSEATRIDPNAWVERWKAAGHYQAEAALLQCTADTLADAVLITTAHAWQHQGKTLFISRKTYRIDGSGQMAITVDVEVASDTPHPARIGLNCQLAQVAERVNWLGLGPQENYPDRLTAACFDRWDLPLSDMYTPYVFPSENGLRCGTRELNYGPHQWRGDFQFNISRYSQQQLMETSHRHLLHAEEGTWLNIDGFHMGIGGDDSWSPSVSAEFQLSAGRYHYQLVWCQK
T6 sequence (P41143 whole entry): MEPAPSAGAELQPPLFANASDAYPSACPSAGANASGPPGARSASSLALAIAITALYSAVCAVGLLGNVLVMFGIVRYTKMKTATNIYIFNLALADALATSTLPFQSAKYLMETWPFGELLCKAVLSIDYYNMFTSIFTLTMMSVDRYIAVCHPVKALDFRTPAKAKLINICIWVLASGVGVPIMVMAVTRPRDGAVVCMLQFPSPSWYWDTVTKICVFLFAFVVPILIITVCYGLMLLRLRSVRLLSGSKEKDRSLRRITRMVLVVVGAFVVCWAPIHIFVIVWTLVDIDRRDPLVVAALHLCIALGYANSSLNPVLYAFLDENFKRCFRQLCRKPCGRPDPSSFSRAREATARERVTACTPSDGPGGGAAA
T5 sequence (P41145 whole entry): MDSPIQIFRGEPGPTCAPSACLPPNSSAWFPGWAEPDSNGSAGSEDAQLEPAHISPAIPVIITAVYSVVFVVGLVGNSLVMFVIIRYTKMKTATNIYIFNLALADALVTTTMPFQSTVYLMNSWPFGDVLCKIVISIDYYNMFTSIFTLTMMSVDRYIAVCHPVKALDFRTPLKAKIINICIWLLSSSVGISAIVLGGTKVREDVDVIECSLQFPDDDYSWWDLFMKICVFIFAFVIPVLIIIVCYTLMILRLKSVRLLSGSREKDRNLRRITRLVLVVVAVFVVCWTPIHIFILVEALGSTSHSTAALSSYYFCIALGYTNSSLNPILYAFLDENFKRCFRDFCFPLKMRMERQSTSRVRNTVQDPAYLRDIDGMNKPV
Mu-type opioid receptor, sequence (P35372 whole entry): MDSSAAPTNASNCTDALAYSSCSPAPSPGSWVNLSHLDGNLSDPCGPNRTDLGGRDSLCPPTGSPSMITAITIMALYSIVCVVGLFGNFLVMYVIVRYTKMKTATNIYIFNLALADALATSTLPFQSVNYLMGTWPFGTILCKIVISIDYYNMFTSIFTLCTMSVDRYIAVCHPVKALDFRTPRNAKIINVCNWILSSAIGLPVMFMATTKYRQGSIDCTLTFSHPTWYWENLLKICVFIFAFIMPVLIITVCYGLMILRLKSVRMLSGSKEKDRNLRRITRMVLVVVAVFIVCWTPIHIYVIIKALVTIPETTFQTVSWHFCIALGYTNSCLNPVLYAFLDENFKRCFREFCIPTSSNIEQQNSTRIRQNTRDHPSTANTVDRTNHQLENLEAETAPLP

Cc1ccc(C(=O)O)cc1NC(=O)c1ccc2c(c1)C(=O)N(c1ccc([N+](=O)[O-])cc1)C2=O
active: IC50 [1] 21.6 µM | IC50 [2] 10.9 µM | IC50 [3] 15 µM

O=C(NNC(=O)C12CC3CC(CC(C3)C1)C2)c1ccccn1
inactive: EC50 (Beta-galactosidase [6]) > 31.5 µM | EC50 [10] > 32 µM | EC50 (Mu-type opioid receptor) > 32 µM | EC50 (Beta-galactosidase [12]) > 40 µM | IC50 [14] > 32 µM
> 32 µM: IC50 [9]
active: CC50 [4] 16.7 µM | IC50 [5] 11.2 µM | CC50 [7] 8.61 µM | CC50 [8] > 20 µM | AC50 (INS1) 3.14 µM | CC50 [11] 5.31 µM | IC50 [13] 15 µM | IC50 (cells) 9.85 µM

CCc1ccc(C2=NN=C(Nc3cccc(S(=O)(=O)N(C)C)c3)SC2)cc1
active: EC50 (Hexokinase-1) 8.26 µM | AC50 (INS1) 7.54 µM | EC50 (Hexokinase HKDC1) 10.3 µM
> 195 µM (not active): EC50 [15]

CCCCN(CCCC)C(=S)N/N=C/c1c(C)nn(-c2ccccc2)c1O
> 120 µM (not active): EC50 [18]
inactive: EC50 (Hexokinase-1) > 80 µM | EC50 (Beta-galactosidase [12]) > 40 µM | EC50 (Hexokinase HKDC1) 28.7 µM
active: EC50 [16] 0.221 µM | CC50 [17] 5.22 µM | IC50 [5] 13.3 µM | EC50 [19] 4.19 µM | EC50 (Streptococcus) 11.4 µM | EC50 [20] 13.3 µM
